Measured values: paper PMC5118696, “Identification of inhibitors that dually target the new permeability pathway and dihydroorotate dehydrogenase in the blood stage of Plasmodium falciparum” (Scientific Reports, 2016)
Where two headings read alike, the source gives them in different places.

Tests used:
[1] = test system: Hyp1-NLuc Plasmodium falciparum-infected erythrocytes (new permeability pathway, NPP); experiment: microbe, parasite or virus in culture; settings: Erythrocyte, 0.33 h, read-out: % of control remaining
[2] = test system: Hyp1-NLuc Plasmodium falciparum-infected erythrocytes (new permeability pathway, NPP); experiment: microbe, parasite or virus in culture; settings: Erythrocyte, 0.33 h, read-out: Mean RLU at 28 min (As % of DMSO control)

| Compound | activity at 2 µM [1] | activity at 2 µM [2] |
| --- | --- | --- |
| CCOC(=O)C1=CN(C)C=C(C(=O)OCC)C1c1cc(Br)c(OCC)c(OC)c1 [MMV006656] | 102% | 105% |
| CN(C)CCNc1cc(-c2ccccc2)nc2ccccc12 [MMV006704] | 92% | 90.8% |
| Cc1cc(N2CCN(C3CCCC3)CC2)n2c(nc3ccccc32)c1C#N [MMV006706] | 117% | 118% |
| Cc1cc(=O)oc2c1ccc1oc(C(=O)c3ccccc3)c(C)c12 [MMV006753] | 108% | 103% |
| CCOc1c(Br)cc(C2C(C(=O)OC)=CN(C)C=C2C(=O)OC)cc1OC [MMV006764] | 85.8% | 80.4% |
| COc1cc2cc(C(=O)Nc3ccccc3)c(N)nc2cc1OC [MMV006767] | 119% | 119% |
| CC(C)CCNCC(O)Cn1c2ccccc2c2ccccc21 (stereo not drawn) [MMV006787] | 98.6% | 97.5% |
| CCCCc1c(C)nc2c(OC)cccc2c1O [MMV006820] | 105% | 106% |
| COc1ccc(Nc2cc(C)nc(NCc3ccccc3)n2)cc1 [MMV006825] | 110% | 107% |
| c1ccc2cc3c(Nc4ccc(N5CCOCC5)cc4)ccnc3cc2c1 [MMV006861] | 102% | 109% |
| CCOC(=O)c1cnc2ccc(Cl)cc2c1NCCCN(C)C [MMV006882] | 110% | 106% |
| C=CCc1c(C)nc2ccccc2c1O [MMV006913] | 115% | 116% |
| Cc1ccc(-c2cc3nc4c(c(O)n3n2)CCCC4)cc1 [MMV006937] | 58.4% | 100% |
| O=C(Nc1ccc(-c2nc3cc(NC(=O)c4ccc(Cl)cc4)ccc3[nH]2)cc1)c1ccc(Cl)cc1 [MMV006962] | 99.7% | 101% |
| CCOc1ccc2nc(C)cc(Nc3ccc(N(C)C)cc3)c2c1 [MMV007020] | 102% | 102% |
| Cc1ccc2c(C)nc(Nc3nc(C)cc(-c4ccccc4)n3)nc2c1 [MMV007041] | 98.8% | 104% |
| CCOc1ccc(CN2CCN(CC(O)COc3ccc(OCC(O)CN4CCN(Cc5ccc(OCC)cc5)CC4)cc3)CC2)cc1 (stereo not drawn) [MMV007092] | 98.2% | 105% |
| c1ccc(C2=Nc3ccccc3N=C(c3ccccc3)c3ccccc32)cc1 [MMV007113] | 111% | 103% |
| CCOC(=O)c1cnc2ccc(CC)cc2c1O [MMV007116] | 85.3% | 103% |
| OC1=C2C(=Nc3ccccc3SC2c2ccc(Br)cc2)c2ccccc21 (stereo not drawn) [MMV007127] | 114% | 108% |
| Cc1ccc(N2C3c4ccccc4N(S(=O)(=O)c4ccc(C)cc4)C2c2ccccc2N3S(=O)(=O)c2ccc(C)cc2)cc1 [MMV007160] | 103% | 103% |
| Cc1cc(Nc2ccc(OCc3ccccc3)cc2)nc2cc(O)ccc12 [MMV007181] | 108% | 105% |
| COc1ccccc1N1C(=N)SC(=Cc2ccc(OCc3ccccc3F)cc2)C1=O [MMV007199] | 62.6% | 86.7% |

| Compound | activity at 2 µM [1] | activity at 2 µM [2] |
| --- | --- | --- |
| COc1ccc(OC)c(C2C3=C(CC(C)(C)CC3=O)N(c3ccc(Cl)c(Cl)c3)C3=C2C(=O)CC(C)(C)C3)c1 [MMV007208] | 104% | 102% |
| Brc1ccc(Nc2nc3ccccc3nc2Nc2ccc(Br)cc2)cc1 [MMV007224] | 104% | 95.5% |
| Cc1cccc(N2C(=O)C3C(C2=O)C2(c4ccccc4)C(=O)C3(c3ccccc3)C(c3ccc4c(c3)OCO4)=C2c2ccc3c(c2)OCO3)c1 (stereo not drawn) [MMV007228] | 107% | 99.5% |
| COc1cc(-c2nc(-c3ccc(Sc4ccccc4)cc3)c(-c3ccccc3)[nH]2)cc(OC)c1O [MMV007273] | 105% | 97.2% |
| Cc1ccc(F)cc1NC(=O)c1cc(Cl)ccc1Nc1ccccc1 [MMV007275] | 116% | 106% |
| CCOc1ccc(Nc2ccnc3cc(Cl)ccc23)cc1 [MMV007285] | 102% | 107% |
| Clc1ccc2c(N3CCCC3)ccnc2c1 [MMV007363] | 115% | 114% |
| CCc1ccc(Nc2cc(C)nc3nc(C)nn23)cc1 [MMV007374] | 114% | 113% |
| COc1ccc(-c2nc3cc(Cc4ccc5[nH]c(-c6ccc(OC)cc6)nc5c4)ccc3[nH]2)cc1 [MMV007384] | 45.6% | 82.1% |
| Cc1ccccc1OCCSc1nc2ccc(NC(=O)c3cccs3)cc2s1 [MMV007396] | 111% | 104% |
| O=C(NCc1ccco1)C1CCN(S(=O)(=O)c2ccc(Br)cc2)CC1 [MMV007430] | 112% | 114% |
| COc1cc2c3cc1Oc1c(OC)c(OC)cc4c1C(Cc1ccc(O)c(c1)Oc1ccc(cc1)CC3N(C)CC2)N(C)CC4 (stereo not drawn) [MMV007474] | 103% | 104% |
| COc1ccc(CCNC(=O)c2cc(S(=O)(=O)N3CC(C)CC(C)C3)ccc2Sc2ccc(F)cc2)cc1OC (stereo not drawn) [MMV007557] | 106% | 102% |
| Cc1ccc(Cn2c(N3CCC(C(=O)NCc4cccs4)CC3)nc3ccccc32)cc1 [MMV007564] | 104% | 96.6% |
| O=C(Nc1ccc(C23CC4CC(CC(c5ccccc5)(C4)C2)C3)cc1)c1cccs1 [MMV007574] | 111% | 106% |
| Cc1ccccc1OCCSc1nc2ccc(NC(=O)c3ccccc3)cc2s1 [MMV007577] | 98.1% | 97.3% |
| COc1ccc(C(=O)C(CCC(CNC(C)(C)C)C(=O)c2ccc(OC)cc2)CNC(C)(C)C)cc1 (stereo not drawn) [MMV007591] | 102% | 103% |
| CC(=O)NCCc1nc2ccccc2n1Cc1ccc(C(C)C)cc1 [MMV007617] | 82.1% | 95.2% |
| Cc1ccc(C)c(-c2csc(Nc3ccc(C)c(C)c3)n2)c1 [MMV007654] | 91.8% | 94.4% |
| CCCCCCOC(=O)C1=C(C)NC(=O)NC1c1ccccc1F (stereo not drawn) [MMV007686] | 105% | 107% |
| COc1ccc(C(C)=O)cc1N1C(=O)C2C(C1=O)C1(c3ccccc3)C(=O)C2(c2ccccc2)C(c2ccc(C)cc2)=C1c1ccc(C)cc1 (stereo not drawn) [MMV007695] | 98.4% | 98.9% |
| CCCCc1c(CCC)c(=N)c2ccccc2n1C [MMV007764] | 111% | 110% |
| CCOc1ccccc1NC(=O)CN1CCN(C(=O)c2ccco2)CC1 [MMV007791] | 108% | 106% |

| Compound | activity at 2 µM [1] | activity at 2 µM [2] |
| --- | --- | --- |
| COc1nc(Nc2ccc(C(C)C)cc2)nc(OC)n1 [MMV007808] | 110% | 110% |
| COc1ccc2c(c1)OC(O)(C(F)(F)C(F)(F)F)CC2=O (stereo not drawn) [MMV007839] | 93.7% | 104% |
| COc1ccc2nc(C)cc(Nc3ccc(Cl)cc3)c2c1 [MMV007875] | 99.5% | 98.8% |
| CCCCN(CCCC)S(=O)(=O)c1ccc(NC(=O)c2ccco2)cc1 [MMV007881] | 96.9% | 104% |
| CCCCOc1ccc(C(=O)Nc2cc(C)on2)cc1 [MMV007906] | 115% | 117% |
| Cc1ccc(Nc2nc(-c3ccccn3)cs2)cc1 [MMV007907] | 103% | 106% |
| O=c1nc(C=Cc2ccc(Cl)cc2)oc2ccccc12 [MMV007977] | 105% | 110% |
| CCOc1ccc(CCNC(=O)c2cccs2)cc1OCC [MMV007978] | 114% | 112% |
| CN1CCN(c2c3c(c(C#N)c4nc5ccccc5n24)CCC3)CC1 [MMV008127] | 111% | 112% |
| O=C(O)C1Cc2c([nH]c3ccccc23)C(c2ccc(Cl)cc2Cl)N1 (stereo not drawn) [MMV008138] | 102% | 102% |
| Cc1c(C)n(Cc2ccc(F)cc2)c2ccc(C(=O)NCc3ccco3)cc12 [MMV008149] | 118% | 102% |
| CN1C=C(c2ccc3ccccc3n2)C(c2c[nH]c3ccccc23)c2ccccc21 (stereo not drawn) [MMV008160] | 86% | 91.7% |
| COc1cc(OC)cc(N2C(=O)N(Cc3ccc(C(C)(C)C)cc3)c3ccccc3S2(=O)=O)c1 [MMV008173] | 115% | 103% |
| COc1ccc2nc(C)cc(Nc3cccc(O)c3)c2c1 [MMV008212] | 107% | 106% |
| Oc1c2c(nc3cc(-c4ccccc4)nn13)CCCC2 [MMV008270] | 56.9% | 100% |
| CCOC(=O)c1cnc2c(C)cc(C)cc2c1Nc1ccc(OC)c(OC)c1 [MMV008294] | 97.1% | 104% |
| CCCc1c(CC)c(=N)c2ccccc2n1C [MMV008416] | 100% | 98.9% |
| COc1ccc(C2C(C(=O)Nc3cccc(OC)c3)c3ccccc3C(=O)N2C2CCCCC2)cc1 (stereo not drawn) [MMV008455] | 115% | 107% |
| CCN1CCN(c2c(C(=O)c3ccccc3)cnc3cc(OC)c(OC)cc23)CC1 [MMV008474] | 102% | 97.3% |
| CCCn1c(=N)c(C(=O)NC2CCCCC2)cc2c(=O)n3cccc(C)c3nc21 [MMV008829] | 105% | 106% |
| CCOc1cc2c(cc1OCC)C(c1cc(OC)c(O)cc1Cl)NCC2 (stereo not drawn) [MMV008956] | 100% | 102% |
| O=C(CCc1ccccc1)c1ccccc1OCC(O)CN1CCCCC1 (stereo not drawn) [MMV009015] | 106% | 107% |
| CCN(CC)c1ccc(NC(=O)c2cccs2)cc1 [MMV009060] | 111% | 103% |
